This is an account of results in patent US4081474A, “Sulfonyloxy bromoacetanilides and their utility as biocides” (Stauffer Chemical Company, priority 1976, dated 1978).

Type in all cases: cell-based
The test system of experiment [1] is Escherichia coli. Description: In Vitro Vial Test (nutrient broth). The settings on record: 168 h; for MIC: read-out: Lowest Effective Concentration; for minimal effective concentration: read-out: Lowest Effective Concentration (partial control).
In experiment [2] the test system is Aspergillus niger. Description: In Vitro Vial Test (malt broth). As to conditions: 168 h; for MIC: read-out: Lowest Effective Concentration.
Experiment [3] concerns Penicillium italicum. Description: In Vitro Vial Test (malt broth). As to conditions: 168 h; for MIC: read-out: Lowest Effective Concentration; for minimal effective concentration: read-out: Lowest Effective Concentration (partial control).
For experiment [4], the system named is Staphylococcus aureus. Description: In Vitro Vial Test (nutrient broth). The settings on record: 168 h; for MIC: read-out: Lowest Effective Concentration.
In experiment [5] the test system is Staphylococcus aureus. Briefly: Microbiocide Testing Procedure Using Agar. As to conditions: nutrient agar, 37° C., read-out: Minimum Inhibitory Concentration. The procedure: (§1) This test measures the bactericidal and fungicidal properties of a compound when in contact with a growing bacterium or fungi in an artificial medium. […] The treated agar mixture is then allowed to come to room temperature and solidify. Cells of the particular organism are then streaked on the surface of the solidified agar and are then incubated for such lengths of time that untreated samples containing no toxicant show luxurious growth typical of the particular organism. This time varies from 24 hours to one week, depending on the particular organism. The fungi are incubated at 30° C. and the bacteria are incubated at 37° C. Nutrient agar is used as the medium in this test for the bacteria. Potato dextrose agar is used as the medium for the fungi.

Experiment [6] concerns Aspergillus niger. Briefly: Microbiocide Testing Procedure Using Agar. The settings on record: potato dextrose agar, 30° C., read-out: Minimum Inhibitory Concentration. The procedure: as §1
Experiment [7] concerns Penicillium italicum. Briefly: Microbiocide Testing Procedure Using Agar. The settings on record: potato dextrose agar, 30° C. The procedure: as §1
Experiment [8] deals with Escherichia coli. Briefly: Microbiocide Testing Procedure Using Agar. As to conditions: nutrient agar, 37° C., read-out: Minimum Inhibitory Concentration. The procedure: as §1
Experiment [9] concerns Staphylococcus aureus. Description: Soap Plug Test. The settings on record: 1% in sodium stearate soap plug, 37° C., 17 hours.
Experiment [10] relates to Escherichia coli. Description: Soap Plug Test. The settings on record: 1% in sodium stearate soap plug, 37° C., 17 hours.
The subject of experiment [11] is Brevibacterium ammoniagenes. Description: Detergent Formulation Test. The settings on record: washed cotton cloth, compounds at 0.2% in Tide detergent, 37° C.
In experiment [12] the test system is Staphylococcus aureus. Description: Detergent Formulation Test. The settings on record: washed cotton cloth, compounds at 0.2% in Tide detergent, 37° C.
The test system of experiment [13] is Trichophyton mentagrophytes. Description: Detergent Formulation Test. The settings on record: washed cotton cloth, compounds at 0.2% in Tide detergent, 37° C.
The test system of experiment [14] is Escherichia coli. Briefly: Detergent Formulation Test. As to conditions: washed cotton cloth, compounds at 0.2% in Tide detergent, 37° C.
Setting [15] is: nutrient broth, one week, value printed in: partial control at this concentration.
Where [16] appears, read: malt broth, one week, value printed in: partial control at this concentration.

Values after ≈ are worked out from the molar mass of the structure shown. Like-named read-outs stand apart in the source and are kept apart here.

Take `O=C(CBr)Nc1cccc(OS(=O)(=O)c2ccccc2)c1` [Compound 8, m-Phenylsulfonyloxy bromoacetanilide]: the MIC is > 50 µg/mL in experiment [1] (nutrient broth, one week); > 50 µg/mL in experiment [2] (malt broth, one week); 50 µg/mL (≈ 135 µM) in [3] (malt broth, one week); 50 µg/mL (≈ 135 µM) in [4] (nutrient broth, one week); 10 µg/mL (≈ 27 µM) in experiment [5]; > 50 µg/mL in experiment [6]. Besides, the values for the MIC in [7] (read-out: Minimum Inhibitory Concentration) and in experiment [8] were 50 µg/mL (≈ 135 µM) and > 50 µg/mL, respectively.

Consider `O=C(CBr)Nc1cccc(OC(=O)NC2CCCCC2)c1` [Compound 5], for which the minimal effective concentration in [1] and in experiment [3] was 50 µg/mL throughout. Further, the MIC in [2] was > 50 µg/mL; in experiment [4], 50 µg/mL (≈ 141 µM).

`CC(C)CS(=O)(=O)Oc1cccc(NC(=O)CBr)c1` [Compound 7, m-Isobutylsulfonyloxy bromoacetanilide]: the MIC in [1] (nutrient broth, one week) was > 50 µg/mL; in [2] (malt broth, one week), > 50 µg/mL; in experiment [3] (malt broth, one week), 50 µg/mL (≈ 143 µM); in experiment [4] (nutrient broth, one week), 50 µg/mL (≈ 143 µM); in experiment [5], 50 µg/mL (≈ 143 µM); in [6], > 50 µg/mL. The MIC in experiment [7] (value printed in, not explained in Table III (Table II: partial control), read-out: Minimum Inhibitory Concentration (value in parentheses)) was 10 µg/mL (≈ 28.6 µM); in [8] it was > 50 µg/mL.

As for `CC(C)NC(=O)Oc1cccc(NC(=O)CBr)c1` [Compound 3], the “Zone of Biological Inhibition (radius)” value is listed as 6-8 mm in [9] and 2 mm in experiment [10]. Besides, the results for the MIC in experiment [1] and in experiment [4] were 25 µg/mL (≈ 79.3 µM) and 10 µg/mL (≈ 31.7 µM), respectively. Further, the minimal effective concentration in experiment [2] (read-out: Lowest Effective Concentration (partial control)) amounted to 100 µg/mL; in experiment [3], 25 µg/mL.

Consider `O=C(CBr)Nc1ccc(O)cc1` [Compound 6], for which the MIC in experiment [1] (nutrient broth, one week) is 25 µg/mL (≈ 109 µM); in experiment [2] (malt broth, one week), 50 µg/mL (≈ 217 µM); in experiment [3] (malt broth, one week), 50 µg/mL (≈ 217 µM); in experiment [4] (nutrient broth, one week), 25 µg/mL (≈ 109 µM).

Turning to `O=C(Nc1ccc(Cl)cc1)Nc1ccc(Cl)c(Cl)c1` [TCC, 3,4,4-trichlorocarbanilide, reference compound], the “Zone of Biological Inhibition (radius)” value stood at 5 mm in experiment [9] and 0 mm in experiment [10].

For the molecule `O=C(CCl)Nc1cccc(O)c1` [A, reference compound], the minimal effective concentration in experiment [1] (setting [15]) turned out to be 250 µg/mL; in [3] (setting [16]), 500 µg/mL; in experiment [4] (nutrient broth, one week, value printed in: partial control at this concentration, read-out: Lowest Effective Concentration (partial control)) it was 250 µg/mL. The MIC in experiment [2] (malt broth, one week) was > 500 µg/mL.

For the molecule `O=C(CBr)Nc1cccc(O)c1` [Compound 1, 3'-hydroxybromoacetanilide], the “Zone of Biological Inhibition (radius)” value in experiment [9] is on record as 12-15 mm; in experiment [11], 0 mm; in [12], 3 mm; in experiment [13], 1 mm; in [10], 2 mm; in experiment [14] it was 2 mm. For the same molecule, the minimal effective concentration amounted to 10 µg/mL in experiment [1] (setting [15]) and 25 µg/mL in experiment [3] (setting [16]). The MIC came out at 100 µg/mL (≈ 435 µM) in [2] (malt broth, one week) and 10 µg/mL (≈ 43.5 µM) in experiment [4] (nutrient broth, one week).

On to `CNC(=O)Oc1cccc(NC(=O)CBr)c1` [Compound 2, 3'-N-methyl carbamoyloxy bromoacetanilide], for which the MIC in [1] is 50 µg/mL (≈ 174 µM); in [2] it was > 50 µg/mL; in [3], > 50 µg/mL; in experiment [4], 50 µg/mL (≈ 174 µM).

For `C=CCNC(=O)Oc1cccc(NC(=O)CBr)c1` [Compound 4], the MIC in experiment [1] was > 50 µg/mL; in experiment [2], > 50 µg/mL; in experiment [3], 50 µg/mL (≈ 160 µM); in experiment [4] it was 50 µg/mL (≈ 160 µM).

For the molecule `CC(C)NC(=O)Oc1cccc(NC(=O)CCl)c1` [B, reference compound], the MIC in experiment [1], in [2], in experiment [3] and in experiment [4] was > 500 µg/mL throughout.
